Read-outs that look alike come from different tables or passages of the source.
Columns and labels:
HCT116 cells (KRAS G13D) [1] = experiment: 3D Cell viability assay in HCT116 cells (Biological Example 6); assay type: cell-based; conditions: HCT116 (KRAS G13D) spheroids, 72 hours
Description: (§1) Biological Example 6: 3D Cell viability assay in AsPC-1, SW1900, HPAC, Capan-2, RKN, H358, HCT116, KP-2, H1573, A549, MKN1, and HT1080 cells
(§2) The inhibition of cellular viability as a result of test compound treatment in a spheroid assay was measured using the CellTiter-Glow 3D Cell Viability Assay (Promega).
(§3) On Day 1, 1000 cells per well were seeded in 150 μL of complete growth media supplemented with 10% fetal bovine serum (FBS) and incubated at 37° C., in the presence of 5% CO2 in 96-well ultra-low attachment microplates (Corning) for 48 hours undisturbed to allow spheroids to form.
(§4) Following spheroid formation, cells were treated with compounds diluted in DMSO at 0.25% final DMSO concentration. Compounds were dosed in a 9-point concentration curve with three-fold dilution between concentrations. Cells were incubated in the presence of compound for 72 hours at 37° C., in the presence of 5% CO2.
(§5) Following this incubation period, the kit-provided CTG reagent was allowed to equilibrate for 30 minutes at room temperature, 150 μL of equilibrated CTG reagent was added to each well, and the plate was sealed before shaking at 250 rpm for 10 minutes at room temperature to lyse the cells, 150 μL of lysate per well was transferred to a 96-well plate and luminescence was read on a CLARIOstar plate reader.
(§6) Data was imported into the Prism software package (Graphpad) and EC50 values were calculated using the log (inhibitor) vs, response—variable slope (Four parameters) model.

AsPC-1 cells (KRAS G12D) = experiment: Cell-based pERK HTRF assay in AsPC-1 cells (Biological Example 5)
Description: (§7) Biological Example 5: Cell-based PERK HTRF assay in AsPC-1, SW1900, HPAC, Capan-2, RKN, H358, HCT116, KP-2, H1573, A549, MKN1, and HT1080 cells
(§8) The inhibition of ERK phosphorylation, as measured using the HTRF Advanced Phospho-ERK 1/2 (Thr202/Tyr204) Detection Assay kit (Perkin Elmer), was used to determine the effectiveness of test compounds in disrupting KRAS-driven protein/effector signaling in cells.
(§9) On day 1, cells were seeded into 96-well plates at 2.5×10^4 cells/well in 100 μL of complete growth media supplemented with 10% fetal bovine serum (FBS) and incubated at 37° C., in the presence of 5% CO2.
(§10) On day 2, cells were treated with compounds diluted in DMSO at 0.25% final DMSO concentration. Compounds were dosed in a 9-point concentration curve with three-fold dilution between concentrations. Cells were incubated in the presence of compound for two hours at 37° C. Following this treatment period, cells were harvested by aspirating the media, adding 40 μL of kit-supplied 1x lysis buffer per well, and shaking for 30 minutes at 250 rpm at room temperature.
(§11) Following cell lysis, samples were homogenized by pipetting up and down twenty times and 16 μL of cell lysate per well was transferred from the 96-well cell culture plate to two wells of a 384-well detection plate. A complete detection buffer was prepared by diluting D2 and Eu Cryptate antibodies 1:20 in kit-provided detection solution, 4 μL of complete detection buffer was then added to each well with lysate. Plates were incubated with gentle rocking for 24 hours at 4° C.
(§12) Following this incubation period, plates were centrifuged at 500×g for one minute and analyzed on a CLARIOstar plate reader. Data was imported into Microsoft Excel and the signal from the 665 nm channel was divided by the signal from the 620 nm channel. % pERK was calculated as: […]
(§13) Data was imported to the Prism software package (Graphpad) and EC50 values were calculated using the log (inhibitor) vs, response—variable slopc (Four parameters) model.

HPAC cells (KRAS G12D) = experiment: Cell-based pERK HTRF assay in HPAC cells (Biological Example 5)
Description: as §7, §8, §9, §10, §11, §12, §13

HT1080 cells (NRAS) [2] = experiment: 3D Cell viability assay in HT1080 cells (Biological Example 6); assay type: cell-based; conditions: Homo sapiens, HT-1080; HT1080 (NRAS) spheroids, 72 hours
Description: as §1, §2, §3, §4, §5, §6

HT1080 cells (NRAS) [3] = experiment: Cell-based pERK HTRF assay in HT1080 cells (Biological Example 5); conditions: Homo sapiens, HT-1080
Description: as §7, §8, §9, §10, §11, §12, §13

A549 cells (KRAS G12S) = experiment: Cell-based pERK HTRF assay in A549 cells (Biological Example 5); conditions: Homo sapiens
Description: as §7, §8, §9, §10, §11, §12, §13

HCT116 cells (KRAS G13D) [4] = experiment: Cell-based pERK HTRF assay in HCT116 cells (Biological Example 5)
Description: as §7, §8, §9, §10, §11, §12, §13

[5] = Homo sapiens, ASPC1, AsPC-1 (KRAS G12D) cells

| IC50 (HCT116 cells (KRAS G13D) [1]; Homo sapiens, HCT-116) | IC50 (AsPC-1 cells (KRAS G12D); [5]) | IC50 (HPAC cells (KRAS G12D); Homo sapiens, HPAC) | SMILES | also measured |
| --- | --- | --- | --- | --- |
| 100 to 1000 nM | ≤ 100 nM |  | CCN(c1nc(OC[C@@]23CCCN2C[C@H](F)C3)nc2c(F)c(-c3ccc(F)c4sc(N)c(C#N)c34)c(C(F)(F)F)cc12)[C@H]1C[C@H](COC)N(C(=O)C2CC2)C1 (atropisomer, axis not shown) [Compound 696] |  |
|  | ≤ 100 nM | 100 to 1000 nM | CCN(c1nc(OC[C@@]23CCCN2C[C@H](F)C3)nc2c(F)c(-c3ccc(F)c4sc(N)c(C#N)c34)c(C(F)(F)F)cc12)[C@H]1C[C@H](C)N(C(=O)N2CC(OC)C2)C1 (atropisomer, axis not shown) [Compound 764] |  |
| 100 to 1000 nM | ≤ 100 nM | ≤ 100 nM | CN(Cc1cccnc1N)c1nc(OC[C@@]23CCCN2C[C@H](F)C3)nc2c(F)c(-c3ccc(F)c4sc(N)c(C#N)c34)c(C(F)(F)F)cc12 [Compound 390] | IC50 (HT1080 cells (NRAS) [2]): > 1000 nM; IC50 (HT1080 cells (NRAS) [3]): > 1000 nM; IC50 (A549 cells (KRAS G12S)): ≤ 100 nM |
|  | ≤ 100 nM | ≤ 100 nM | C[C@H]1Cn2nc(C(=O)N(C)C)cc2CN1c1nc(OC[C@@]23CCCN2C[C@H](F)C3)nc2c(F)c(-c3ccc(F)c4sc(N)c(C#N)c34)c(C(F)(F)F)cc12 (atropisomer, axis not shown) [Compound 610] |  |
|  | 100 to 1000 nM | 100 to 1000 nM | CCN(c1nc(OC[C@@]23CCCN2C[C@H](F)C3)nc2c(F)c(-c3ccc(F)c4sc(N)c(C#N)c34)c(C(F)(F)F)cc12)[C@H]1C[C@H](C)N(C(C)=O)C1 [Compound 463] | IC50 (HT1080 cells (NRAS) [2]): > 1000 nM; IC50 (HT1080 cells (NRAS) [3]): > 1000 nM |
| 100 to 1000 nM |  |  | Cc1c(C(=O)N(C)C)nn2c1CN(c1nc(OC[C@@]34CCCN3C[C@H](F)C4)nc3c(F)c(-c4ccc(F)c5sc(N)c(C#N)c45)c(C(F)(F)F)cc13)CC2 (atropisomer, axis not shown; (aS)) [Compound 590, 5-((S)-7-(2-amino-3-cyano-7-fluorobenzo[b]thiophen-4-yl)-8-fluoro-2-(((2R,7aS)-2-fluorotetrahydro-1H-pyrrolizin-7a(5H)-yl)methoxy)-6-(trifluoromethyl)quinazolin-4-yl)-N,N,3-trimethyl-4,5,6,7-tetrahydropyrazolo[1,5-a]pyrazine-2-carboxamide] | IC50 (HPAC cells (KRAS G12D)): ≤ 100 nM; IC50 (AsPC-1 cells (KRAS G12D); AsPC-1 (KRAS G12D) cells): ≤ 100 nM |
|  |  |  | CCN(c1nc(OCC23CCCN2CC(F)C3)nc2c(F)c(-c3ccc(F)c4sc(N)c(C#N)c34)c(C(F)(F)F)cc12)C1CC(C)N(C(=O)C2CC2(F)F)C1 (stereo not shown) [Compound 732] | IC50 (HCT116 cells (KRAS G13D) [1]): 100 to 1000 nM; IC50 (HCT116 cells (KRAS G13D) [4]): ≤ 100 nM; IC50 (HPAC cells (KRAS G12D)): ≤ 100 nM |
|  | ≤ 100 nM | 100 to 1000 nM | CCN(c1nc(OC[C@@]23CCCN2C[C@H](F)C3)nc2c(F)c(-c3ccc(F)c4sc(N)c(C#N)c34)c(C(F)(F)F)cc12)[C@H]1CCN(C(=O)c2ncco2)C1 (atropisomer, axis not shown) [Compound 584] |  |
|  | ≤ 100 nM |  | CCN(c1nc(OC[C@@]23CCCN2C[C@H](F)C3)nc2c(F)c(-c3ccc(F)c4sc(N)c(C#N)c34)c(C(F)(F)F)cc12)[C@H]1C[C@H](C)N(C(=O)OC)C1 (atropisomer, axis not shown) [Compound 704] |  |
| 100 to 1000 nM | ≤ 100 nM | ≤ 100 nM | CCN(c1nc(OC[C@@]23CCCN2C[C@H](F)C3)nc2c(F)c(-c3ccc(F)c4sc(N)c(C#N)c34)c(C(F)(F)F)cc12)[C@H]1CC(=O)N2CCC[C@@H]12 (atropisomer, axis not shown; (aS)) [Compound 697, 2-amino-4-((S)-4-(ethyl((1S,7aS)-3-oxohexahydro-1H-pyrrolizin-1-yl)amino)-8-fluoro-2-(((2R,7aS)-2-fluorotetrahydro-1H-pyrrolizin-7a(5H)-yl)methoxy)-6-(trifluoromethyl)quinazolin-7-yl)-7-fluorobenzo[b]thiophene-3-carbonitrile] |  |
